Data on three compounds can be found in patent US7569711B2, “Enone cancer therapeutics” (Cornell Univeristy, priority 2002, dated 2009).

One assay deals with T1, hGSTP1-1 (Homo sapiens, UniProt P09211).
T1 construct: purchased Sigma Chemical Company; host or cells: human placenta
In words: initial rates of reaction with hGSTP1-1 (substrate kinetics). It is filed as biochemical. As to conditions: pH 6.5, [GSH]=1 mM, 25° C.; estimated. As to the method:
Initial rates of reaction of 1a and 1b with hGSTP1-1 were determined from reciprocal plots of initial velocities (ΔOD235/min), versus [substrate] in buffered solution at pH 6.5, with [GSH]=1 mM (25° C.). Under those conditions, the enzyme-catalyzed GSH addition became rate determining (<0.01 units of transferase in the assay cuvettes).

Assay [1] deals with murine and human tumors in culture. As to conditions: range of different murine and human tumors in culture; read-out: IC50 antitumor activity; cited from earlier work.
Assay [2] concerns the target T2, human erythrocyte GlxI (Homo sapiens, UniProt Q04760).
T2 construct: Kinetic studies with human erythrocyte GlxI; from tissue; host or cells: human erythrocytes
T2 sequence (Q04760 2-184 limits assumed): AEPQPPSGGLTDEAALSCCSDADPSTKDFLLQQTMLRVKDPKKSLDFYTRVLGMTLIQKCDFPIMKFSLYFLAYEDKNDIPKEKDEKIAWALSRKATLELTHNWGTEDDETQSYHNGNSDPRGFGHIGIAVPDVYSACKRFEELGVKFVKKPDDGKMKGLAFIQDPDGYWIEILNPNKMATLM
In words: kinetic studies with human erythrocyte GlxI (competitive inhibition). The format is biochemical. The note with it: sodium phosphate buffer, pH 7.0, 25° C., read-out: dissociation constant Ki. Here is the method: In each kinetic run, the concentration of free GSH was maintained at 0.2 mM by varying the total concentration of GSH and methylglyoxal on the basis of the dissociation constant of the hemithioacetal (Kdiss=2.2 mM). Conditions: 50 mM phosphate buffer, pH 7.0, 25° C.
To investigate the mechanism of formation of 2b, the nonenzymatic reaction of 1b with GSH was monitored spectrophotometrically, and followed a simple first-order decay (FIG. 2, trace A). No intermediate species was detectable. However, in the presence of human placental glutathione transferase (GSTP 1-1) (Predominantly the pi or P1-1 isoform, purchased from Sigma Chemical Company. Salts and free GSH were removed by ultrafiltration. Units of transferase activity were determined using 1-chloro-2,4-dinitrobenzene as substrate (Mannervik, B.; Danielson, U. H. CRC Critical Reviews in Biochemistry 1988, 23, 283-337). The reaction rate profile conformed to a double exponential decay, composed of a rapid, enzyme-dependent, initial phase involving 1b followed by a slower enzyme-independent first-order phase (FIG. 2, traces B and C).

Assay [3] has as its target T2, human erythrocyte GlxI. As to conditions: competitive; previously reported; read-out: dissociation constant Ki; cited from earlier work.

Like-named read-outs stand apart in the source and are kept apart here.

T1 sequence (P09211 2-210 limits assumed): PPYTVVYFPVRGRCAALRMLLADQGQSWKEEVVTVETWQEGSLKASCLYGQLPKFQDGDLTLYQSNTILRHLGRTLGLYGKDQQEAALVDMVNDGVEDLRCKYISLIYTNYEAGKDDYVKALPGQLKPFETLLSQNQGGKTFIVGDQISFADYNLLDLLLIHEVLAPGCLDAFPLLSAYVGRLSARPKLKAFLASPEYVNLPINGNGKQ

Consider `C/C=C/C(=O)OCC1=C[C@@H](O)[C@@H](O)[C@@H](O)C1=O` [Compound 1a, 2-crotonyloxymethyl-(4R, 5R, 6R)-4,5,6-trihydroxy-2-cyclohexenone], for which, on hGSTP1-1, the “kcat/Km, fold lower than that of 1b” value is approximately 8.3 fold. For the same compound, in assay [1], the IC50 was 3 to 44 µM.
Consider `N[C@@H](CCC(=O)N[C@@H](CSCC1=CCCCC1=O)C(=O)NCC(=O)O)C(=O)O` [Compound 2b], for which the Ki on human erythrocyte GlxI [2] was 107 ± 0.1 µM.
Turning to `NC(CCC(=O)NC(CSCC1=CC(O)C(O)C(O)C1=O)C(=O)NCC(=O)O)C(=O)O` (stereo not shown) [Compound 2a], the inhibition constant (Ki) on human erythrocyte GlxI [3] was 183 ± 6 µM.

In general, IC50 refers to the concentration that inhibits the measured activity by half. Broadly, the Ki is a measure of affinity in units of concentration, obtained from inhibition or displacement.
